Measured values: ChEMBL document CHEMBL2380191, “Novel racemic tetrahydrocurcuminoid dihydropyrimidinone analogues as potent acetylcholinesterase inhibitors” (Bioorg Med Chem Lett, 2013)

Target: Acetylcholinesterase (Electrophorus electricus, UniProt O42275)
Assay: Inhibition of electric eel AChE using acetylthiocholine iodide as substrate after 15 mins by Ellman's method

Chain of Acetylcholinesterase (O42275 whole entry): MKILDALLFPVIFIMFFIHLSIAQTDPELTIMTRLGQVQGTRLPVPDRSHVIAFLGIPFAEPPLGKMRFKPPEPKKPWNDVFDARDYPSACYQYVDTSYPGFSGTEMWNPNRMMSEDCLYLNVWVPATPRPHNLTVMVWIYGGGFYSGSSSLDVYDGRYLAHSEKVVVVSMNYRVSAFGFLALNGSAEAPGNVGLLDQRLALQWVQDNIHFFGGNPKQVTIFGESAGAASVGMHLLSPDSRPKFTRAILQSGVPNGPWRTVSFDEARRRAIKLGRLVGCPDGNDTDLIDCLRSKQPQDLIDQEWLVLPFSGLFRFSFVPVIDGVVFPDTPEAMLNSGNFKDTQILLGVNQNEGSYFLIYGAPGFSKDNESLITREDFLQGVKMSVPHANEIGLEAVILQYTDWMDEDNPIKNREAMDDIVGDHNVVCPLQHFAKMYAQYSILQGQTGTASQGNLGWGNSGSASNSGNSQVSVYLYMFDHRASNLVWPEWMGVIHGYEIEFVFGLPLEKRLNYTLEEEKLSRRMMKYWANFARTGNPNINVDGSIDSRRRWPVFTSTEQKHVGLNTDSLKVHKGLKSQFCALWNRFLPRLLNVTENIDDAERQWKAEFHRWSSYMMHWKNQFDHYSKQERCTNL

## COc1cc(CCC(=O)C2=C(CCc3ccc(O)c(OC)c3)NC(=O)NC2c2ccccc2)ccc1O (racemic)
  IC50: 36.3 µM

## COc1cc(CCC(=O)C2=C(CCc3ccc(O)c(OC)c3)NC(=O)NC2c2ccc(O)cc2)ccc1O (racemic)
  IC50: 17.3 µM

## COc1ccc(C2NC(=O)NC(CCc3ccc(O)c(OC)c3)=C2C(=O)CCc2ccc(O)c(OC)c2)cc1 (racemic)
  IC50: 14.3 µM

## COc1cc(CCC(=O)C2=C(CCc3ccc(O)c(OC)c3)NC(=O)NC2c2ccc(O)c(OC)c2)ccc1O (racemic)
  IC50: 56.4 µM

## COc1cc(CCC(=O)C2=C(CCc3ccc(O)cc3)NC(=O)NC2c2ccccc2)ccc1O (racemic)
  IC50: 10.7 µM

## COc1cc(CCC2=C(C(=O)CCc3ccc(O)cc3)C(c3ccccc3)NC(=O)N2)ccc1O (racemic)
  IC50: 20.9 µM

## COc1ccc(C2NC(=O)NC(CCc3ccc(O)cc3)=C2C(=O)CCc2ccc(O)c(OC)c2)cc1 (racemic)
  IC50: 5.78 µM

## COc1ccc(C2NC(=O)NC(CCc3ccc(O)c(OC)c3)=C2C(=O)CCc2ccc(O)cc2)cc1 (racemic)
  IC50: 9.1 µM

## O=C1NC(CCc2ccc(O)cc2)=C(C(=O)CCc2ccc(O)cc2)C(c2ccccc2)N1 (racemic)
  IC50: 2.04 µM

## COc1ccc(C2NC(=O)NC(CCc3ccc(O)cc3)=C2C(=O)CCc2ccc(O)cc2)cc1 (racemic)
  IC50: 1.34 µM

## O=C(/C=C/c1ccc(O)cc1)CC(=O)/C=C/c1ccc(O)cc1 [BISDEMETHOXYCURCUMIN]
  IC50: 18.3 µM

## COc1cc(/C=C/C(O)=C/C(=O)/C=C/c2ccc(O)cc2)ccc1O [DEMETHOXYCURCUMIN]
  IC50: 37.7 µM

## O=C(CCc1ccc(O)cc1)CC(=O)CCc1ccc(O)cc1 [LETESTUIANIN C]
  IC50: 7.89 µM

## COc1cc(CCC(=O)CC(=O)CCc2ccc(O)c(OC)c2)ccc1O [TETRAHYDROCURCUMIN]
  IC50: 41.2 µM

## COc1cc(CCC(=O)CC(=O)CCc2ccc(O)cc2)ccc1O [TETRAHYDRODEMETHOXYCURCUMIN]
  IC50: 20.6 µM
